Data on 2 compounds can be found in PMC9403987 (Frontiers in Oncology, 2022).

In one series the test system is MHCC97L. The experiment in a line: Cell proliferation assay. Format: cell-based. As to conditions: Homo sapiens, liver, hepatocellular carcinoma, 72 hours.
For series [1] the following is noted: mouse, in vivo, po, 30 mg/kg; cited from earlier work.
A further series deals with T1, CDK4–cyclin D1 (Homo sapiens, UniProt P11802).
T1 construct: purchased Invitrogen
Briefly: LANCE Ultra TR-FRET enzymatic profiling assay. Format: biochemical. The method, then: Results were calculated as half-maximal inhibitory concentration (IC50) and inhibition constant (K i). IC50 and K i values were determined using the XLfit 205 model (ID Business Solutions Ltd, Guildford, UK) curve-fitting add-on for Microsoft Excel (Microsoft Corporation, Redmond, WA, USA).
Background: In TR-FRET formats the signal depends on donor and acceptor labels being close together.

The subject of the next series is CT26.WT. The experiment in a line: Cell proliferation assay. As to conditions: colorectal carcinoma, 72 hours. The class given is cell-based, Mus musculus. The procedure: (§1) To quantify cell proliferation, either the nuclei of live cells were counted following staining with 4’,6-diamidino-2-phenylindole (DAPI; Sigma-Aldrich, Burlington, MA, USA), or metabolically active cells were detected using a CellTiter-Glo assay (Promega Corporation, Madison, WI, USA). Cells from a range of human and mammalian tumor cell lines (American Type Culture Collection, Manassas, VA, USA) were seeded at 4000 cells per well in 100 μL of culture medium in a 96-well plate and incubated overnight at 37°C with 5% CO2. […] In the DAPI staining method, cells were washed using 1× phosphate-buffered saline (PBS; Gibco Thermo Fisher Scientific, Waltham, MA, USA), fixed with 4% formaldehyde, permeabilized with 0.2% Triton X-100 (Sigma-Aldrich), washed again, and stained with 1 μg/mL DAPI to visualize cell nuclei. Cells were washed with 1× PBS three times, and 100 μL 1× PBS was added to each well. Plates were scanned using an IN Cell Analyzer 2200 (GE Healthcare Life Sciences, Chicago, IL, USA) and the number of cells per well was recorded. In the CellTiter-Glo assay, 60 μL of CellTiter-Glo luminescent solution was added to each well after incubation with the test compounds, and the assay plate was scanned using a Tecan Infinite M1000 PRO microplate reader (Tecan Group AG, Männedorf, Switzerland) to record luminescent signals.

The next series deals with BRL. The experiment in a line: Cell proliferation assay. The class given is cell-based, Rattus norvegicus. To be noted: liver, normal, 72 hours. The method, then:
as §1

The test system of series [2] is breast cancer resistance protein (BCRP). As to conditions: cited from earlier work.
In the next series the test system is U87-MG. As to conditions: cell line U87-MG; cited from earlier work.

T1 sequence (P11802 whole entry): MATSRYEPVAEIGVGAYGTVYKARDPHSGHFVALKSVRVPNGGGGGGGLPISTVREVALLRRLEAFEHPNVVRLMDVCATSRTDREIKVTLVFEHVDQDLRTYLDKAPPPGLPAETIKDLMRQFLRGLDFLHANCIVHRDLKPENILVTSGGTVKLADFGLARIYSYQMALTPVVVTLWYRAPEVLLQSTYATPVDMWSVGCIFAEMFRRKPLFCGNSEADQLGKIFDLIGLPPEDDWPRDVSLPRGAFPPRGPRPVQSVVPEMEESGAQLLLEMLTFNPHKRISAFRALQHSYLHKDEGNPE
T1 sequence (P24385 whole entry partner): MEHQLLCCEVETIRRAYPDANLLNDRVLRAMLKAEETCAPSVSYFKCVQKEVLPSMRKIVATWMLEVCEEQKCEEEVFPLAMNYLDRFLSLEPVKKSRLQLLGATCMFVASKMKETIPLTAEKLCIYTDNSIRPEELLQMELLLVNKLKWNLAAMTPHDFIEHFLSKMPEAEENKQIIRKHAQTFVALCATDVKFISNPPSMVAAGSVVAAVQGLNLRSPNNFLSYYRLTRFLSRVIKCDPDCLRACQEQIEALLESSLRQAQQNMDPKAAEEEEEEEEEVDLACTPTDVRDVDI

For the compound `CCN1CCN(Cc2ccc(Nc3ncc(F)c(-c4cc(F)c5nc(C)n(C(C)C)c5c4)n3)nc2)CC1` [Abemaciclib, abemaciclib, reference compound], in the series on MHCC97L, the IC50 (usually the midpoint of a concentration-inhibition curve) was 236 nM. Moreover, in series [1], the “Kp,uu” value is 0.03.

With `CC1=Nc2c(F)cc(-c3nc(Nc4ccc(C5CCN(C)CC5)cn4)ncc3F)cc2C12CCCC2` [GLR2007], on CDK4–cyclin D1 (CDK4/CyD1), the Ki (commonly the dissociation constant of the complex between target and ligand, obtained from inhibition or displacement) was below 0.1 nM. The IC50 was 0.22 nM against CDK4–cyclin D1 (CDK4/CyD1, 11 concentrations in duplicates); 2020 nM in the series with CT26.WT; 2120 nM in the series with BRL. Also, in series [2], the “Substrate of efflux transporter BCRP” value was “not a substrate”. Moreover, the Cell cycle effect result in the series on U87-MG is reported as “induce G1 arrest”.
